Test results taken from patent US20130123253A1, “MODULATORS OF CENTRAL NERVOUS SYSTEM NEUROTRANSMITTERS” (HUMAN BIOMOLECULAR RESEARCH INSTITUTE, priority 2004, published 2013).
Read-outs that look alike come from different tables or passages of the source.

Tests used:
DAT, SERT or NET = experiment: Binding and reuptake inhibition in HEK cells containing DAT, SERT or NET (overall statement); type: cell-based, human; conditions: for transporter inhibition potency: DAT, SERT, NET binding and reuptake
Protocol: The data cannot be directly compared with Table 1 because the compounds of Table 3 were mixtures of diastereomers and isomers at all centers of chirality.
Transporter Binding Assays. […] Cells were scraped from plates and centrifuged for […] at 30,000×g and the pellet was re-suspended in 0.32 M sucrose with a Polytron at a setting of 1 for 5 sec. […] Membranes were pre-incubated with test compounds for […] before addition of [^125I]RTI-55. […] The incubations were done in the dark and terminated by filtration onto a Whatman GF/C filters using a 96-well Tomtech cell harvester (Tomtech, Orange, Conn.). Scintillation fluid was added to each filter spot and radioactivity remaining on the filter was determined using a Wallace β-plate reader (Wallace Labs, Cranbury, N.J.).

ICR mice = experiment: Forced-swim test in ICR mice; type: in vivo, mouse
Protocol: Forty male ICR mice, weighed 26.2±0.3 g, were housed in a temperature-controlled room (22-23° C.) and maintained on a 12-hour on 12-hour off light cycle (lights on at 6:00 AM). Water and food were freely available in the home cages. […] Saline containing the same percentage of DMSO was used as vehicle. The lower doses were tested followed by the larger doses 1 week later, when the mice were again randomly divided into four groups as described above. The forced-swim test (FST) was carried out as described previously. Mice were given a swimming pretest session, once a day for two successive days. Twenty-four hours after the last session, mice were injected vehicle or the lower dose of each test compound by the i.p. route 30 min prior to the FST. One week later, administration of the larger dose of each of the test compounds was repeated. During the pretest and test sessions, each mouse was placed for 6 min in a plastic cylinder (45 cm high×20 cm diameter), which was filled to a depth of 28 cm with water (23±1° C.). The duration of immobility, which was defined as floating in an upright position without additional activity other than that necessary for the animal to keep its head above water, was recorded.

Balb/c mice = experiment: Forced-swim test in Balb/c mice; type: in vivo, mouse; conditions: for duration of immobility, forced-swim test, acute: i.p. 30 min prior, fluoxetine 20 mg/kg, test compounds 10 mg/kg
Protocol: The study was conducted according to a standard operation procedure and in accordance with all Federal regulations. Water and food were freely available in the home cages. […] Mice were given a swimming pretest session, once a day for two successive days. […] During the pretest and test sessions, each mouse was placed for […] in a plastic cylinder (45 cm high×20 cm diameter), which was filled to a depth of 28 cm with water (23±1° C.). The duration of immobility, which was defined as floating in an upright position without additional activity other than that necessary for the animal to keep its head above water, was recorded. For the subchronic administration tests, the animals were separated as above and vehicle or chemicals were given by i.p. administration 23, 5 and 1 hr before the FST. The subchronic experiments were done similar to the study described above except for the pretest training that was not carried out.
Mice in the first session were treated with vehicle or the drugs acutely, whereas mice in the second sessions were treated subchronically, i.e., vehicle or drugs were given i.p. 23, 5, and 1 hr before the FST. The experiment was performed similar to Experiment 1 except for the pretest training, which was not carried out in the second session.

human PDE4A1 = biological target: T1, human PDE4A1 (Homo sapiens, UniProt P27815); experiment: Inhibition of cAMP hydrolysis by recombinant human PDE4A1; type: biochemical
T1 construct: made in house
Protocol: (§1) PDE4 enzyme assays were carried out as described previously. Studies with recombinant PDE4 enzymes were carried out in the laboratory of Professor Marco Conti (Stanford University, Palo Alto, Calif.).

human PDE4B3 = biological target: T2, human PDE4B3 (Homo sapiens, UniProt Q07343); experiment: Inhibition of cAMP hydrolysis by recombinant human PDE4B3; type: biochemical; conditions: Example 29
T2 construct: made in house
Protocol: as §1

[1] = Mouse liver microsome stability assay; type: in vitro ADME
Protocol: A typical assay mixture contained either mouse or rat liver microsomes (0.5 mg of protein), […] potassium phosphate buffer (pH 7.4), 40 μM test compounds, 0.5 mM NADP+, 0.5 mM glucose-6-phosphate, 5 IU/mL glucose-6-phosphate dehydrogenase, 1 mg/mL diethylenetriaminepentaacetic acid (DETAPAC) and 5 mM MgCl2 in a final incubation volume of 0.1 mL. After 0, 10, 25, 40 and […], the incubations were stopped by the addition of 1 ml CH2Cl2/2-propanol (3:1 v:v). The mixture was centrifuged at 12,000×g for 1 min, and the organic layer was separated from the aqueous fraction. The organic fraction was evaporated with a stream of argon and the residue was taken up in methanol (200 μL) and injected into the HPLC system described above.
(§2) Microsomal incubations (final volume 0.25 mL) with the SSRIs, dual PDE4 inhibitor/SSRIs or PDE4 inhibitor was done with an HPLC assay as described above. Diluted stocks of either mouse, human or rat liver microsomes (0.5 mg of protein), […] potassium phosphate buffer (pH 7.4), 0.5 mM NADI)^+, 0.5 mM glucose-6-phosphate, 5 IU/mL glucose-6-phosphate dehydrogenase, 0.6 mM DETAPAC, and 3 mM MgC12 were combined and placed on ice. For a metabolic stability assay, either vehicle or 40 μM test compound was added and the incubation was initiated at 37° C. with constant shaking. After 0, 10, 25, 40 and 60 min, the incubations were stopped by the addition of 1 mL CH2Cl2/2-propanol (3:1, v:v). After thorough mixing, the organic layer was separated from the aqueous portion by centrifugation at 12,000×g. The organic material was evaporated with a stream of argon. The residue was dissolved in methanol (200 μL) and the sample was analyzed by HPLC.

human PDE4D3 = biological target: T3, human PDE4D3 (Homo sapiens, UniProt Q08499); experiment: Inhibition of cAMP hydrolysis by recombinant human PDE4D3; type: biochemical
T3 construct: made in house; host or cells: Cos 7 cells (construct and cells a gift from Dr. Conti, Stanford)
Protocol: The PDE construct was transfected into Cos 7 cells in round culture dish (100×20 mm). The cells were then harvested and homogenized with lysis buffer. The crude homogenate was spun at maximum speed in a microfuge. The supernatant fluid was saved as an extract. […] The PDE construct and Cos 7 cells were a kind gift from Dr. Conti at the Stanford University School of Medicine.
as §1

mice = experiment: Morris water maze test; type: in vivo, mouse; conditions: 3 mg/kg, compared to control mice
Protocol: Compounds 19 and 115 were tested in a Morris water maze test. The escape latency (time to climb onto a hidden platform) for each mouse was recorded as a memory test. […] Compared to a group of control mice, compound 19 and 115 caused a 30% improvement in memory at 3 mg/kg. […] This is not completely unexpected as SSRIs often require repeated dosing to see a large and significant effect. […] Multiple dosing likely will increase the efficacy of the compounds tested.

[2] = Human liver microsome stability assay; type: in vitro ADME; conditions: for half-life at 40 μM: human, liver microsomes, pH 7.4, Table 16, read-out: HLM t1/2
Protocol: as §2

rodent PDE4 = experiment: Inhibition of rodent PDE4 (rolipram binding sites); conditions: Table 4
Protocol: IC50 values for inhibitor interaction with this site were calculated by nonlinear regression analysis of competition curves for unlabeled PDE4 inhibitors; Ki values were determined according to the method of Cheng and Prusoff (1973). […] Competition curves for the PDE4 inhibitors were subjected to nonlinear regression analysis and IC50 values with which the inhibitors bind to each of the binding sites was determined; K1 values were determined according to the method of Cheng and Prusoff (1973).

Swiss-Webster mice = experiment: animal or person; type: in vivo, mouse
Protocol: A time course/dose response study of cocaine-induced locomotor stimulation was conducted beginning Feb. 21, 2000, according to a locomotor activity studies time course protocol. […]. A panel of infrared beams (16 beams) and corresponding photodetectors were located in the horizontal direction along the sides of each activity chamber. A 7.5-W incandescent light above each chamber provided dim illumination. Fans provided an 80-dB ambient noise level within the chamber. […]. In all studies, horizontal activity (interruption of photocell beams) was measured for 8 hours within 10-min periods, beginning at 0800 hrs (2 hours after lights on). Testing was conducted with one mouse per activity chamber.
. Behavioral observations were recorded on each mouse at 30, 120 and 480 minutes following 100 mg/kg compound 31,646.

[3] = Example 29, read-out: Ki, human PDE4A1
[4] = Table 14, read-out: Human PDE4A1 Ki
[5] = Example 29, read-out: Ki, human PDE4D3

T1 sequence (P27815 1-647 isoform P27815-4): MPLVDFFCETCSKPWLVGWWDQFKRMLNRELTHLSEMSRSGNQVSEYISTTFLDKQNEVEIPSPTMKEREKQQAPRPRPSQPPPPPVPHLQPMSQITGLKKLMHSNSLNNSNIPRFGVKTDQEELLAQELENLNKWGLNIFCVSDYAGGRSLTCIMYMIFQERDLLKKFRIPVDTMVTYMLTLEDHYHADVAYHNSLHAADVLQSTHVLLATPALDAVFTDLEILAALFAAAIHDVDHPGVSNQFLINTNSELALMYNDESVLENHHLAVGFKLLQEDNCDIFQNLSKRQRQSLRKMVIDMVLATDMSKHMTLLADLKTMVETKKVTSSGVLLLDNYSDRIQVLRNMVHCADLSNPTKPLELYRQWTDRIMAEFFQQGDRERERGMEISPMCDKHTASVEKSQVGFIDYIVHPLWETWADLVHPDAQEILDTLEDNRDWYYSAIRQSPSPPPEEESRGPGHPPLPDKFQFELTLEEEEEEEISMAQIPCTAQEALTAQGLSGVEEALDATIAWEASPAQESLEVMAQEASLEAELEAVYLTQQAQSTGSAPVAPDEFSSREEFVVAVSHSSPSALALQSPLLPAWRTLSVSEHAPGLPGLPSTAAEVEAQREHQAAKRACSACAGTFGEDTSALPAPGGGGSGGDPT
T3 sequence (Q08499 1-673 isoform Q08499-2): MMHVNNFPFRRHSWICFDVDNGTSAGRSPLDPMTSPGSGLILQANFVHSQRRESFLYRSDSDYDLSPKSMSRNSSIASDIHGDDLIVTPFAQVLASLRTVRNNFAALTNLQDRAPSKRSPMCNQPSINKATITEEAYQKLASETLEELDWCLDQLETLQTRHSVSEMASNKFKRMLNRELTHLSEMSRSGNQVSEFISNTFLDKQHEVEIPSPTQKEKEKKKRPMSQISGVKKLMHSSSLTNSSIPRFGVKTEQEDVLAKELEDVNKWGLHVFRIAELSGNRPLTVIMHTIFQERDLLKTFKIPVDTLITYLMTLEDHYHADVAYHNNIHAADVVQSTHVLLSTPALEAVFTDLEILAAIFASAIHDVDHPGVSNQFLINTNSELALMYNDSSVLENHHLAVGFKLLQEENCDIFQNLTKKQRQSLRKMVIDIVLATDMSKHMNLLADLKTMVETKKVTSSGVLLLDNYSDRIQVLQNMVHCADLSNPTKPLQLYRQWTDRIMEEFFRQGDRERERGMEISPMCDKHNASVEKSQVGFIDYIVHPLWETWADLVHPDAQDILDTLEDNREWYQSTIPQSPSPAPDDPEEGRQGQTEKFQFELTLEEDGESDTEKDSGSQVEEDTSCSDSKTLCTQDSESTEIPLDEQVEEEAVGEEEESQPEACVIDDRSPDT
T2 sequence (Q07343 1-721 isoform Q07343-3): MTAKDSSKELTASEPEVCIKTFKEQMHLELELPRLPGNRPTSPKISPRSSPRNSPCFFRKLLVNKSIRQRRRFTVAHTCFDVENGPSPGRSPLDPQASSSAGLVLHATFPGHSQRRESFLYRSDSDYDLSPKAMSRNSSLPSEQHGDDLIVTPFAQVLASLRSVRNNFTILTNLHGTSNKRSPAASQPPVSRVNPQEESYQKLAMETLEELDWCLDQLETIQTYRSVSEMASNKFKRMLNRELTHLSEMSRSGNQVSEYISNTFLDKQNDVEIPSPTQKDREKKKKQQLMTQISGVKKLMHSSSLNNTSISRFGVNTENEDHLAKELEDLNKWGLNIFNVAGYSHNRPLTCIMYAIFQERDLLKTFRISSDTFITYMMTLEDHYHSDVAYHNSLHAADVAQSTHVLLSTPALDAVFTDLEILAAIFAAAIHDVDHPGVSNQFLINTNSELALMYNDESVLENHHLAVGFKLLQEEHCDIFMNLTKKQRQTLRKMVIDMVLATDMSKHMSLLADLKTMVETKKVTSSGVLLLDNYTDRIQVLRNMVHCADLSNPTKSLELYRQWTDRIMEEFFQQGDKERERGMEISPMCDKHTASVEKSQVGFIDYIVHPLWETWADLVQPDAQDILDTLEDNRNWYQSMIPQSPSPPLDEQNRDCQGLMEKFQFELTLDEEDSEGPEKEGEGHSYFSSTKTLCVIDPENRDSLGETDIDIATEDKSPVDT

2-(5-Bromo-pentyl)-4-(3,4-dimethoxy-phenyl-4a,5,8,8a-tetrahydro-2H-phthalazin-1-one [Compound 20]
transporter inhibition potency (DAT, SERT or NET): no transporter inhibition potency

COc1ccc(C2CNC(=O)C2)cc1OC1CCCC1 (stereo not drawn) [Rolipram, reference compound]
forced-swim test behavior, acute (ICR mice; 0.5 mg/kg): did not alter FST behavior

COc1ccc(F)cc1CCCC1CCC(CCN)O1 (stereo not drawn) [Compound 15, 2-Aminoethyl-5-(3′-(2″-methoxy-5″-fluorophenyl)-1′-propyl)tetrahydrofuran]
duration of immobility, forced-swim test, acute (Balb/c mice): did not markedly alter the duration of immobility

COc1ccc(C2=NNC(=O)[C@@H]3CC=CC[C@H]23)cc1OC (racemic) [Compound 19, 4-(3,4-Dimethoxy-phenyl)-4a,5,8,8a-tetrahydro-2H-phthalazin-1-one, reference compound]
Ki (human PDE4A1; [3]): > 1 µM
Ki (human PDE4A1; [4]): < 1 µM
Ki (human PDE4B3): 0.25 µM
immobility, forced-swim test, acute, higher dose (ICR mice; 3 mg/kg i.p., vs vehicle, P<0.05): significantly reduced immobility
duration of immobility, forced-swim test, acute (ICR mice; 0.3 and 3 mg/kg i.p.): decreased duration of immobility in a dose-dependent manner
half life, mouse liver microsomes ([1]; NADPH): 3.52 h
MLM t1/2 ([1]; Table 16): 3.522 h
effect on RTI-55 binding or reuptake at any transporter (DAT, SERT or NET; hDAT, hSERT, hNET): essentially no measurable effect
PDE4A1/PDE4D3 inhibitory selectivity ratio (human PDE4D3): < 159 fold
PDE4B3/PDE4D3 inhibitory selectivity ratio (human PDE4D3): 40 fold
Ki (human PDE4D3; [5]): 0.0063 µM
improvement in memory (escape latency) (mice): 30%
half-life at 40 μM [2]: > 1 h

COc1ccc(C2=NNC(=O)C3CC=CCC23)cc1OC (racemic) [Compound 19, 4-(3,4-Dimethoxy-phenyl)-4a,5,8,8a-tetrahydro-2H-phthalazin-1-one, reference compound]
pIC50 (rodent PDE4): 6.7
transporter inhibition potency (DAT, SERT or NET): no transporter inhibition potency
Ki (human PDE4D3; Table 5, recombinant human PDE 4D3, read-out: Ki): 0.0063 µM

COC(=O)[C@H]1[C@@H](OC(=O)c2ccccc2)C[C@@H]2CC[C@H]1N2C [Cocaine, reference compound]
onset of stimulant effects after injection (Swiss-Webster mice; 10 and 20 mg/kg): ≤ 10 min
ED50 (Swiss-Webster mice; Mus musculus, IP, 0-30 min, read-out: ED50 (dose producing 1/2 maximal stimulant activity)): 5.8 mg/kg
dose at maximum horizontal activity (Swiss-Webster mice; estimated from fitted curve): 23.4 mg/kg
maximum horizontal activity (Swiss-Webster mice; estimated from fitted curve, 0-30 min): 5520 counts/10 min

COc1ccc(F)c(CCCC2CCC(CCNCCCCCN3N=C(c4ccc(OC)c(OC)c4)C4CC=CC[C@H]4C3=O)O2)c1 (stereo partly drawn) [Compound 22]
pIC50 (rodent PDE4): 6.3
Ki (human PDE4A1; [3]): > 1 µM
Ki (human PDE4A1; [4]): < 1 µM
Ki (human PDE4B3): 0.5 µM
metabolism in mouse liver microsomes ([1]; NADPH, up to 60 min): No detectable metabolic instability
half-life at 40 μM ([1]; mouse, liver microsomes, pH 7.4, Table 16, read-out: MLM t1/2): > 1 h
Ki (human PDE4D3; [5]): 0.0012 µM
metabolism in human liver microsomes ([2]; NADPH, up to 60 min): No detectable metabolic instability
half-life at 40 μM [2]: > 1 h

COc1ccc(F)cc1CCC1CCC(CCN)O1 (stereo not drawn) [Compound 14, 2-Aminoethyl-5-(2′-methoxy-5′-fluorophenethyl)tetrahydrofuran]
immobility, forced-swim test, acute (ICR mice; 10 and 30 mg/kg i.p.): tended to decrease immobility, but it was not statistically significant
half life, mouse liver microsomes ([1]; NADPH): 0.933 h
MLM t1/2 ([1]; Table 16): 0.933 h
immobility, forced-swim test, subchronic (Balb/c mice; i.p. 23, 5 and 1 hr prior, fluoxetine 10 mg/kg, 18k/l or 14 10 mg/kg, 21 1 mg/kg): did not change immobility
duration of immobility, forced-swim test, acute (Balb/c mice): did not markedly alter the duration of immobility

COc1ccc(F)cc1CCC1CCC(CCNCCCCCN2N=C(c3ccc(OC)c(OC)c3)C3CC=CC[C@H]3C2=O)O1 (stereo partly drawn) [Compound 115]
improvement in memory (escape latency) (mice): 30%

NCCC1CCC(CCc2ccccc2)O1 (stereo not drawn) [Compound 54, 2-(Aminoethyl)-5-(phenethyl)tetrahydrofuran]
other behavioral observations (Swiss-Webster mice; 100 mg/kg, 30, 120 and 480 minutes): No unusual effects were observed
onset of depressant effects after injection (Swiss-Webster mice; 30 and 100 mg/kg): ≤ 10 min
ID50 (dose producing 1/2 maximal depressant activity) (Swiss-Webster mice; IP, 0-30 min after injection): 39.8 mg/kg
CNS stimulation (Swiss-Webster mice; mouse, in vivo): did not cause CNS stimulation
